Measured values as given in patent US20120270935A1, “FORMULATIONS” (priority 2009, published 2012).
Values after ≈ are worked out from the molar mass of the structure shown. Read-outs that look alike come from different tables or passages of the source.

Columns and labels:
S. aureus ATCC 29213 = experiment: MBC assay; type: cell-based, Staphylococcus aureus; details: Mueller-Hinton broth pH 7.0
Text: (a) staphylococci. The Staphylococcus aureus strain used was ATCC 29213. S. aureus and other staphylococci are common causes of a wide range of skin, skin structure and wound infections; S. aureus is also known to exacerbate eczema. The ATCC 29213 strain is known to be susceptible to beta-lactam antibiotics such as methicillin. The Staphylococcus epidermidis strain used was NCTC 11047. Staph. epidermidis forms part of the resident flora of skin and is an opportunistic pathogen which can cause biofilms to grow for instance on plastic surgical implants such as catheters. Unless otherwise stated, the staphylococci were cultured and maintained on Mueller-Hinton Medium (agar and broth) at pH 7.2; cultures were incubated aerobically at 37° C. for 19-20 hours, at pH 7 (±0.2). (b) C. striatum NCTC 764. Corynebacterium striatum is closely related to organisms (aerobic diphtheroids of the genus Corynebacterium) that cause body odour. It was cultured and maintained on Mueller-Hinton medium (agar and broth). All cultures were incubated aerobically at 37° C. for 72 hours, at pH 7 (±0.2). (c) streptococci. The strains tested were S. mutans ATCC 25175 and S. pyogenes ATCC 12344. S. mutans is a Gram-positive, microaerophilic bacterium which plays a significant role in dental caries and in infective endocarditis. Streptococcus pyogenes is associated with skin, soft tissue, burn and wound infections. S. mutans was cultured and maintained on Wilkins-Chalgren Anaerobe medium+1 g/L glucose (agar and broth); it was incubated in air at 37° C. for 48 hours, at pH 7 (±0.2) with 5% carbon dioxide. S. pyogenes was cultured and maintained on Mueller-Hinton medium (broth and agar) and was incubated under the same conditions as S. mutans. […]
Example 8 was repeated (except for the supplemented DDA assays), using S. aureus ATCC 29213 as the test organism. […] In the DDA assays, 200 μg is of each compound was loaded onto each disc: the culture medium was Mueller-Hinton agar at pH 7.0, and results were recorded after overnight incubation at 37° C. in air. […]

S. mutans ATCC 25175 = experiment: Disc diffusion assay (DDA); type: cell-based, Streptococcus mutans; details: 200 μg per disc, 48 hours at 37° C., 5% carbon dioxide, single plates
Text: (a) staphylococci. The Staphylococcus aureus strain used was ATCC 29213. S. aureus and other staphylococci are common causes of a wide range of skin, skin structure and wound infections; S. aureus is also known to exacerbate eczema. The ATCC 29213 strain is known to be susceptible to beta-lactam antibiotics such as methicillin. The Staphylococcus epidermidis strain used was NCTC 11047. Staph. epidermidis forms part of the resident flora of skin and is an opportunistic pathogen which can cause biofilms to grow for instance on plastic surgical implants such as catheters. Unless otherwise stated, the staphylococci were cultured and maintained on Mueller-Hinton Medium (agar and broth) at pH 7.2; cultures were incubated aerobically at 37° C. for 19-20 hours, at pH 7 (±0.2). (b) C. striatum NCTC 764. Corynebacterium striatum is closely related to organisms (aerobic diphtheroids of the genus Corynebacterium) that cause body odour. It was cultured and maintained on Mueller-Hinton medium (agar and broth). All cultures were incubated aerobically at 37° C. for 72 hours, at pH 7 (±0.2). (c) streptococci. The strains tested were S. mutans ATCC 25175 and S. pyogenes ATCC 12344. […] The diameter of this zone of “inhibition” was measured using a ProtoCOL™ automated zone sizer (Synbiosis, Cambridge, UK). […]

Structure (SMILES) | MBC (S. aureus ATCC 29213; Staphylococcus aureus, ATCC29213, read-out: MBC) | zone of inhibition at 200 µg/disc (S. mutans ATCC 25175; Streptococcus mutans, ATCC25175, read-out: DDA zone diameter) | MBC (S. aureus ATCC 29213) | DDA zone diameter (S. mutans ATCC 25175)
CC(=O)c1c(O)c(C)c(O)c2c1OC1=CC(=O)C(C(C)=O)C(=O)C12C (stereo not shown) [Usnic acid, 2,6-diacetyl-7,9-dihydroxy-8,9b-dimethyl-1,3(2H,9bh)-dibenzofurandione] | 250 µg/mL (≈ 726 µM) | 31.2 mm | – | –
CC(=O)c1c([O-])c(C)c([O-])c2c1OC1=CC(=O)C(C(C)=O)C(=O)C12C.[Cu+2] (stereo not shown) [Copper usnate, copper (II) usnate] | – | – | 62.5 µg/mL | 32.4 mm
